“And” between values parts separate entries of the source, which are not always exact repeats. Equal values may be shown once. Read-outs that look alike come from different tables or passages of the source.
Assays:
[1] = Water solubility noted on drug preparation for injection; type: physicochemical
Protocol: (§1) Compounds as their sodium salts were prepared in a 1% sodium bicarbonate solution, H2O or phosphate buffered saline (PBS), with pH adjusted to 7.0 to 7.5 with HCl, and administered intravenously (IV) or orally (PO), at injection volumes of 0.2 mL per injection.

[2] = system: Pancreatic Ductal Adenocarcinoma #03; test: Evaluation against early stage Pancreatic Ductal Adenocarcinoma #03, BD1 female mice (Table 2); conditions: PO
[3] = system: Mammary Adenocarcinoma 16/C; conditions: IV
Description: Pancreatic ductal adenocarcinoma-03, mammary adenocarcinoma-16/C, mammary adenocarcinoma-17/Adr, and human melanoma LOX were used in the studies. Tumors were maintained in the mouse strain of origin (C57B1/6 for Panc-03 and C3H for the mammary tumors). Balb/c SCID mice (B and T cell deficient) were used for tumor maintenance and chemotherapy trials involving the human melanoma LOX. Tumors were transplanted into the appropriate F1 hybrid (B6D2F1=C57B 1/6 female× DBA/2 male) or the strain of origin for the chemotherapy trials. Individual mouse body weights for each experiment were within 5 grams, and all mice were over 17 grams at the start of therapy. The mice were supplied food and water ad libitum.
Animals were pooled, implanted subcutaneously with 30 to 60 mg tumor fragments by a 12 gauge trocar on day 0, and again pooled before unselective distribution to the various treatment and control groups. For early stage treatment, chemotherapy was started within 1 to 3 days after tumor implantation while the number of cells was relatively small (10^7 to 10^8 cells). For upstaged or advanced staged trials, the tumors were allowed to grow for five or more days before treatment was started. Tumors were measured with a caliper twice weekly. […] Tumor weights are estimated from two-dimensional measurements:
Tumor weight (in mg)=(a×b^2)/2, where a and b are the tumor length and width in (mm), respectively.
a) Tumor growth delay (T−C value), where T is the median time (in days) required for the treatment group tumors to reach a predetermined size (e.g., 1,000 mg), and C is the median time (in days) for the control group tumors to reach the same size. Tumor-free survivors were are excluded from these calculations (cures are tabulated separately).
b) Calculation of tumor cell kill for subcutaneously (SC) growing tumors. […] The conversion of the T−C values to log10 cell kill is possible because the Td of tumors re-growing post treatment (Rx) approximates the Td values of the tumors in untreated control mice.
It should be noted that an activity rating of +++ to ++++ is needed to effect partial regression (PR) or complete regression (CR) of 100 to 300 mg size masses of most transplanted solid tumors of mice. Thus, an activity rating of + or ++ would not be scored as active by usual clinical criteria. A PR is a reduction in tumor mass to less than 50% of pretreatment size. A CR is a reduction in tumor mass to below palpable size (i.e., reduction to zero detectable mass).
The T/C value in percent is an indication of anti-tumor effectiveness: A T/C=0% means no tumor growth. A T/C=100% means no anti-tumor activity, i.e., the treated and control tumors grew equally. […] A T/C value<10% is considered to indicate highly significant anti-tumor activity, and is the level used by NCI to justify a clinical trial if toxicity, formulation, and certain other requirements are met (termed DN-2 level activity).
as §1

Human Melanoma LOX = conditions: Cage 2; IV; qd 1–6, BID 7; total 700 mg/kg
[4] = Cage 3, BID3–7, total 2,300 mg/kg
[5] = Cage 4, BID 3, 4, total 480 mg/kg
[6] = Cage 4, d1, 3–5, 7, 9, 11, 13, 15, total 1610 mg/kg
[7] = Cage 5, d1, 3–7, 9, total 665 mg/kg

## CNC(=O)C(C)Oc1ccc(Oc2cnc3ccc(Cl)cc3n2)cc1 (stereo not drawn) [Compound 14b]
[1]
  water solubility: water insoluble
[2]; [4]
  Day of Wt. Loss Nadir: 8 days
  Drug Deaths (day of death): 0/5
  Growth Delay: 7.0 days
  Log Cell Kill: 0.8
  Mean Body Wt. Loss (g/mouse): −2.0 g/mouse
  Median Tumor Burden in mg on d18 (Range): 671 mg
  T/C %: 39%
  Time in days to 1000 mg (range): 21 days
  Tumor Free on d 154: 0/5
  day of full body weight recovery: 10 days
[2]; [5]
  % Body Wt. Loss: 4%
  Day of Wt. Loss Nadir: 5 days
  Drug Deaths (day of death): 0/5
  Growth Delay: 2.0 days
  Log Cell Kill: 0.2
  Mean Body Wt. Loss (g/mouse): −0.8 g/mouse
  Median Tumor Burden in mg on d18 (Range): 1266 mg
  T/C %: 74%
  Time in days to 1000 mg (range): 15 days
  Tumor Free on d 154: 0/5
[2]; Cage 5, BID 3, total 108 mg/kg
  % Body Wt. Loss: 0%
  Day of Wt. Loss Nadir: 5 days
  Drug Deaths (day of death): 0/5
  Growth Delay: 2.7 days
  Log Cell Kill: 0.3
  Mean Body Wt. Loss (g/mouse): +0.4 g/mouse
  Median Tumor Burden in mg on d18 (Range): 1312 mg
  T/C %: 77%
  Time in days to 1000 mg (range): 15.7 days
  Tumor Free on d 154: 0/5

## CC(Oc1ccc(Oc2cnc3ccc(Cl)cc3n2)cc1)C(=O)NCCS(=O)(=O)[O-].[Na+] [Compound 14f (R)]
[3]; [6]
  Day of Wt. Loss Nadir: 14 days
  Drug Death (day of death): 0/5
  Log Cell Kill: 4.2
  Mean Body Wt. Loss in g/mouse: −0.8 g/mouse
  Median Tumor Burden in mg on day 7 (range): 0 mg
  Percent Body Weight Loss: −3.0%
  T-C: 14 days
  T/C %: 0%
  Time to 1000 mg in days (range): 20 days
  Tumor Free on d28: no cures and 0/5
  day of full body weight recovery: ≤ 16 days
[3]; [7]
  Day of Wt. Loss Nadir: 5 days
  Drug Death (day of death): 0/5
  Log Cell Kill: 1.8
  Mean Body Wt. Loss in g/mouse: −0.8 g/mouse
  Median Tumor Burden in mg on day 7 (range): 260 mg
  Percent Body Weight Loss: −2.9%
  T-C: 6 days
  T/C %: 14%
  Time to 1000 mg in days (range): 12 days
  Tumor Free on d28: 0/5
Human Melanoma LOX
  Comments (activity rating): (+) (0.7–1.2)
  Drug Death (day of death): no drug deaths and 0/5
  Log Cell Kill: 0.8
  Median Tumor Burden in mg on d 9 (range): 651 mg
  T-C: 3.0 days
  T/C %: 47%
  Time to 1000 mg days (range): 11.0 days
  Tumor Free on d 18: 0/5

From patent US7109341B2, “Therapeutic amides” (Wayne State University, priority 2002, dated 2006)
